Assay results as given in the kinase profiling compilation of Christmann-Franck et al. (2016).
Blank lines part the entries; values can stand above or below the compound they belong to.

What was measured:
Assay in all cases: radiometric filter-binding kinase assay
ABL1 (human) = ABL1 (human) (UniProt P00519)
CDK9 CCNT1 (human) = CDK9 CCNT1 (human) (UniProt P50750+O60563)
CSNK1G2 (human) = CSNK1G2 (human) (UniProt P78368)
DDR2 (human) = DDR2 (human) (UniProt Q16832)
EIF2AK3 (human) = EIF2AK3 (human) (UniProt Q9NZJ5)
IRAK1 (human) = IRAK1 (human) (UniProt P51617)
MAP4K3 (human) = MAP4K3 (human) (UniProt Q8IVH8)
MAP4K5 (human) = MAP4K5 (human) (UniProt Q9Y4K4)
MAPK11 (human) = MAPK11 (human) (UniProt Q15759)
MAPK11 (human), sequence (Q15759 whole entry, looked up): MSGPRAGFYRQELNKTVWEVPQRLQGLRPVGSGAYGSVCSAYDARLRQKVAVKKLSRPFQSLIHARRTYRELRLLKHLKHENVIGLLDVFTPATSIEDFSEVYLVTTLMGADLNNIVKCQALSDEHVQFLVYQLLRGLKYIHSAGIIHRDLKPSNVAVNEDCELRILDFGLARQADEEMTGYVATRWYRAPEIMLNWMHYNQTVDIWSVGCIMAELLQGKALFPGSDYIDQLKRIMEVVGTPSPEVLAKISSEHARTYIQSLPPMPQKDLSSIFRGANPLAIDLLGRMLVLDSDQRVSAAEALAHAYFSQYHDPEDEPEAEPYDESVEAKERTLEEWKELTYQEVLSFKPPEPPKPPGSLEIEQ

MAPK7 (human) = MAPK7 (human) (UniProt Q13164)
[1] = system: OXSR1 (human), O95747 [T185E]
OXSR1 (human), O95747 [T185E], sequence (O95747 whole entry T185E, looked up): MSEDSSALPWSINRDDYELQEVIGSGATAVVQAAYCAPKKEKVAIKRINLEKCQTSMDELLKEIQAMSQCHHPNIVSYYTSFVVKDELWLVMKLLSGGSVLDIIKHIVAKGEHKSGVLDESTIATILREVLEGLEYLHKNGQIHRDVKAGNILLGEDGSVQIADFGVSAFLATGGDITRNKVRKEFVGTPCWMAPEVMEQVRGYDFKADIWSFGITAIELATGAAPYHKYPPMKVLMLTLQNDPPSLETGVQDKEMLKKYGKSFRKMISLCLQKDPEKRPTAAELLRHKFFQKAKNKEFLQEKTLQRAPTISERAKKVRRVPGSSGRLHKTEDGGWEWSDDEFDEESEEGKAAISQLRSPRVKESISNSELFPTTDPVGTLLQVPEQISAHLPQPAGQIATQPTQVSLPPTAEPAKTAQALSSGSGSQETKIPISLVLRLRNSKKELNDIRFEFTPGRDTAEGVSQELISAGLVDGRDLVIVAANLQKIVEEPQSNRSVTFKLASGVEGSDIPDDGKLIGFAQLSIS

PAK6 (human) = PAK6 (human) (UniProt Q9NQU5)
PDGFRA (human) = PDGFRA (human) (UniProt P16234)
PDGFRA (human), sequence (P16234 whole entry, looked up): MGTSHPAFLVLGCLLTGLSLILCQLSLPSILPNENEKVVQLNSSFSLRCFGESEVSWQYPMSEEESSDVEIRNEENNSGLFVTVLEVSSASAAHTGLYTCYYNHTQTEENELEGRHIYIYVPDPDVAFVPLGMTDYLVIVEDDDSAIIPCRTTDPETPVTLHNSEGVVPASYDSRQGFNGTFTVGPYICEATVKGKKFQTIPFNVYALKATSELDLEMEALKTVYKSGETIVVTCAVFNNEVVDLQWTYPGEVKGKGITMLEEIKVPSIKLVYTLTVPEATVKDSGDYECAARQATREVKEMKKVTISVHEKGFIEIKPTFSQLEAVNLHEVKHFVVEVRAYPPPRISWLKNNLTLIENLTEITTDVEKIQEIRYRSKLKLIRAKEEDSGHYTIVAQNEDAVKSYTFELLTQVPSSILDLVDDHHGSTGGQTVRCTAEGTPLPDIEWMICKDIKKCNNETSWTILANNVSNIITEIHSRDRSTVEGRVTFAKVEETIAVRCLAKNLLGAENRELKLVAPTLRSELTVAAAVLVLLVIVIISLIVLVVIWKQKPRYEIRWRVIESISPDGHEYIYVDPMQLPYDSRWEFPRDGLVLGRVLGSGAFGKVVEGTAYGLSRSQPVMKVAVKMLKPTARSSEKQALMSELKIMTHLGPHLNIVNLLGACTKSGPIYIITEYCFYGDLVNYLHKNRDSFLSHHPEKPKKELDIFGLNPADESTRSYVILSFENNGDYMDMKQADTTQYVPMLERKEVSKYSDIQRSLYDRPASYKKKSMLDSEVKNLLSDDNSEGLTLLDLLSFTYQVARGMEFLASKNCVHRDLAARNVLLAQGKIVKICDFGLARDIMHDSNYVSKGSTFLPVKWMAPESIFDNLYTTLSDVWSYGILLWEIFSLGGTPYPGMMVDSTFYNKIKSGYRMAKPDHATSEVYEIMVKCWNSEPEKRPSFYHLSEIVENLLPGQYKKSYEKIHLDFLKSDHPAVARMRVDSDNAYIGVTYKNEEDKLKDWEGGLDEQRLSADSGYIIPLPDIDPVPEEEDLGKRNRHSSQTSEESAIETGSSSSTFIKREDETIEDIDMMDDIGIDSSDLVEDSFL

[2] = target: PRKAA1 PRKAB2 PRKAG1 (human) (UniProt O43741+Q13131+P54619)
PRKCG (human) = PRKCG (human) (UniProt P05129)
PTK6 (human) = PTK6 (human) (UniProt Q13882)
SIK2 (human) = SIK2 (human) (UniProt Q9H0K1)
SIK3 (human) = SIK3 (human) (UniProt Q9Y2K2)
STK24 (human) = STK24 (human) (UniProt Q9Y6E0)
STK33 (human) = STK33 (human) (UniProt Q9BYT3)
TEK (human) = TEK (human) (UniProt Q02763)
TESK1 (human) = TESK1 (human) (UniProt Q15569)
[3] = system: TGFBR1 (human), P36897 [T204D]
TLK1 (human) = TLK1 (human) (UniProt Q9UKI8)
TLK1 (human), sequence (Q9UKI8 whole entry, looked up): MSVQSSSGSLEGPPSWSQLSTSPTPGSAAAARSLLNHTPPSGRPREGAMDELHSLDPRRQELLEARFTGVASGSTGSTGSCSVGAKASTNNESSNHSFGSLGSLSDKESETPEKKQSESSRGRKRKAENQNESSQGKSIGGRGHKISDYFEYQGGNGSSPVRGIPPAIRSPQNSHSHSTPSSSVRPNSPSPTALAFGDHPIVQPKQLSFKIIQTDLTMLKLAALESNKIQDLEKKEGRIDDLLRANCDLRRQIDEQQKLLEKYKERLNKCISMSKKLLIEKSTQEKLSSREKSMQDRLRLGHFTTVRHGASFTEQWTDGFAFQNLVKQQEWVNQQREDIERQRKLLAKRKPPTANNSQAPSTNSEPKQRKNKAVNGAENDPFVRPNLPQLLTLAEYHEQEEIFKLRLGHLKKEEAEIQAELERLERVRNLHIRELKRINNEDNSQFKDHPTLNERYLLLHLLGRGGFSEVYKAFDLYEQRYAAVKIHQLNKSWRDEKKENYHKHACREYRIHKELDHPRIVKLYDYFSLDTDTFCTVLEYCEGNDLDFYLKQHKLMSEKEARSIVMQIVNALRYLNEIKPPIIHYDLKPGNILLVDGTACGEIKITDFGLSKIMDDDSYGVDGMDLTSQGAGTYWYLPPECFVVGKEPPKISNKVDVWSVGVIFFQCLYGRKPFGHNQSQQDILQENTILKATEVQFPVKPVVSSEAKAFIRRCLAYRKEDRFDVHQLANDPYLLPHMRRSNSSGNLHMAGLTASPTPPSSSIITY

TSSK1B (human) = TSSK1B (human) (UniProt Q9BXA7)
TTBK1 (human) = TTBK1 (human) (UniProt Q5TCY1)
TTBK2 (human) = TTBK2 (human) (UniProt Q6IQ55)
ULK1 (human) = ULK1 (human) (UniProt O75385)
WNK1 (human) = WNK1 (human) (UniProt Q9H4A3)
ZAP70 (human) = ZAP70 (human) (UniProt P43403)
STK16 (human) = STK16 (human) (UniProt O75716); settings: compound 10.0 µM
ULK2 (human) = ULK2 (human) (UniProt Q8IYT8)
ULK2 (human), sequence (Q8IYT8 whole entry, looked up): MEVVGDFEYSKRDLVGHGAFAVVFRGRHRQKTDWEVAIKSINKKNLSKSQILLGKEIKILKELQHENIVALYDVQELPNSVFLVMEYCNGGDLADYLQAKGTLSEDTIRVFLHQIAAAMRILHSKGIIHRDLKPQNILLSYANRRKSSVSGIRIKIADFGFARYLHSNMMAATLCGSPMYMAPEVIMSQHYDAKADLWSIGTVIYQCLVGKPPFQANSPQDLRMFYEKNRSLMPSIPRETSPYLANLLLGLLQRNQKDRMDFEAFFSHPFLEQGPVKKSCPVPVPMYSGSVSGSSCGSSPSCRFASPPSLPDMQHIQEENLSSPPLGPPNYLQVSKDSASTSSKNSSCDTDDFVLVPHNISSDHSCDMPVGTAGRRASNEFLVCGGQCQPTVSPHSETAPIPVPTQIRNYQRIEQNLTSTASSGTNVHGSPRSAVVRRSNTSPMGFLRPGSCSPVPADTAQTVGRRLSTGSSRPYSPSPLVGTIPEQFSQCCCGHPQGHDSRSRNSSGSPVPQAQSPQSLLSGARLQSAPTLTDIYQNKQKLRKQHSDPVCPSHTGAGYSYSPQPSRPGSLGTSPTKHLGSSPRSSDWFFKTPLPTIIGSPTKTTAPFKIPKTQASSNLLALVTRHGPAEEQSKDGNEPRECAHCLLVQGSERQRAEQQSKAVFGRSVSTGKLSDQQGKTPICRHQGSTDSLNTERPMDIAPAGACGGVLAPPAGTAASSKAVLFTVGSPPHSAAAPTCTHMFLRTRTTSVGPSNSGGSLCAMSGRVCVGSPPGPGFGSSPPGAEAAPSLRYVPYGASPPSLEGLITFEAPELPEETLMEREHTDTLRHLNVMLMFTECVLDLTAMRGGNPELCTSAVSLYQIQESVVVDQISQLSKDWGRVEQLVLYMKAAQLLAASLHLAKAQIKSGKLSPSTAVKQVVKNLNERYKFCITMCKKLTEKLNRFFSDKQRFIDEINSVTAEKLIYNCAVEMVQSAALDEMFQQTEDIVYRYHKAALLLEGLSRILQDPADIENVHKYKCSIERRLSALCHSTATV

CDK9 CCNT1 (human), sequence (O60563 whole entry, looked up): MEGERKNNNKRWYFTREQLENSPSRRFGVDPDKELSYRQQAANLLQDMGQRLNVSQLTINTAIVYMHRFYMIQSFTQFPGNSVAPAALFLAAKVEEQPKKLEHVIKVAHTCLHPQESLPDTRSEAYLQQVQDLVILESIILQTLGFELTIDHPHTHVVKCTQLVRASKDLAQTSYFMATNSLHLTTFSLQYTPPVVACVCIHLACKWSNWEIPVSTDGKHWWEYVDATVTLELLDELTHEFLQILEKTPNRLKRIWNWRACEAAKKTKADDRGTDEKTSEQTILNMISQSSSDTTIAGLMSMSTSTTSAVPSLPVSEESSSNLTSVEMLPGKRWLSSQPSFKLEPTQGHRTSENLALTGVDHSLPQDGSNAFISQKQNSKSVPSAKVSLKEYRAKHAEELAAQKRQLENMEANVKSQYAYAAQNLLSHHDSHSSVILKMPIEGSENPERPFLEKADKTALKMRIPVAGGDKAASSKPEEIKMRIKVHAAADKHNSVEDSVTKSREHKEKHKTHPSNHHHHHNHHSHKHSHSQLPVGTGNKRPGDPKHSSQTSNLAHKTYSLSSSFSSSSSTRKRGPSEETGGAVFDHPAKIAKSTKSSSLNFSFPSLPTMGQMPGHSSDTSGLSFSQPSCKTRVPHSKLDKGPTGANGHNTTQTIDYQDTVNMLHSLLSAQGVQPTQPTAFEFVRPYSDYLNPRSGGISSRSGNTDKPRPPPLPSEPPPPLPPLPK
CDK9 CCNT1 (human), sequence (P50750 whole entry, looked up): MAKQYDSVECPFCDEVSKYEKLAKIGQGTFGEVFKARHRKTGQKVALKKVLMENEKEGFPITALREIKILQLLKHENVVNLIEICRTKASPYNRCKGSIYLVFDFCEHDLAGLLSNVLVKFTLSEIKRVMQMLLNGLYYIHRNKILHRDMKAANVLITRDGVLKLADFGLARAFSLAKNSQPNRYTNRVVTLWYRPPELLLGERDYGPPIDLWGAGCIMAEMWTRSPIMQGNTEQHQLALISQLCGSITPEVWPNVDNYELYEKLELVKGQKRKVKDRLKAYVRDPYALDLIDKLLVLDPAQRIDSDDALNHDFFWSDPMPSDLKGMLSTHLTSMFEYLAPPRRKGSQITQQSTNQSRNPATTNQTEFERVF

residual activity (ABL1 (human); compound 1.0 µM): 95%
residual activity (ABL1 (human); compound 10.0 µM): 103%
residual activity (CDK9 CCNT1 (human); compound 1.0 µM): 82%
residual activity (CDK9 CCNT1 (human); compound 10.0 µM): 83%
residual activity (CSNK1G2 (human); compound 1.0 µM): 93%
residual activity (CSNK1G2 (human); compound 10.0 µM): 90%
residual activity (DDR2 (human); compound 1.0 µM): 92%
residual activity (DDR2 (human); compound 10.0 µM): 101%
residual activity (EIF2AK3 (human); compound 1.0 µM): 102%
residual activity (IRAK1 (human); compound 10.0 µM): 80%
residual activity (MAP4K3 (human); compound 1.0 µM): 84%
residual activity (MAP4K3 (human); compound 10.0 µM): 73%
residual activity (MAP4K5 (human); compound 1.0 µM): 80%
residual activity (MAP4K5 (human); compound 10.0 µM): 73%
residual activity (MAPK11 (human); compound 1.0 µM): 92%
residual activity (MAPK11 (human); compound 10.0 µM): 95%
residual activity (MAPK7 (human); compound 1.0 µM): 91%
residual activity (MAPK7 (human); compound 10.0 µM): 89%
residual activity ([1]; compound 1.0 µM): 95%
residual activity (PAK6 (human); compound 1.0 µM): 88%
residual activity (PAK6 (human); compound 10.0 µM): 28%
residual activity (PDGFRA (human); compound 1.0 µM): 82%
residual activity (PDGFRA (human); compound 10.0 µM): 98%
residual activity ([2]; compound 1.0 µM): 88%
residual activity ([2]; compound 10.0 µM): 94%
residual activity (PRKCG (human); compound 1.0 µM): 95%
residual activity (PRKCG (human); compound 10.0 µM): 97%
residual activity (PTK6 (human); compound 1.0 µM): 91%
residual activity (PTK6 (human); compound 10.0 µM): 91%
residual activity (SIK2 (human); compound 1.0 µM): 95%
residual activity (SIK2 (human); compound 10.0 µM): 79%
residual activity (SIK3 (human); compound 1.0 µM): 91%
residual activity (SIK3 (human); compound 10.0 µM): 101%
residual activity (STK24 (human); compound 1.0 µM): 84%
residual activity (STK24 (human); compound 10.0 µM): 70%
residual activity (STK33 (human); compound 1.0 µM): 91%
residual activity (STK33 (human); compound 10.0 µM): 92%
residual activity (TEK (human); compound 1.0 µM): 103%
residual activity (TESK1 (human); compound 1.0 µM): 84%
residual activity (TESK1 (human); compound 10.0 µM): 103%
residual activity ([3]; compound 1.0 µM): 98%
residual activity ([3]; compound 10.0 µM): 98%
residual activity (TLK1 (human); compound 1.0 µM): 89%
residual activity (TLK1 (human); compound 10.0 µM): 104%
residual activity (TSSK1B (human); compound 10.0 µM): 83%
residual activity (TTBK1 (human); compound 1.0 µM): 88%
residual activity (TTBK2 (human); compound 1.0 µM): 96%
residual activity (TTBK2 (human); compound 10.0 µM): 154%
residual activity (ULK1 (human); compound 1.0 µM): 86%
residual activity (ULK1 (human); compound 10.0 µM): 97%
residual activity (WNK1 (human); compound 10.0 µM): 105%
residual activity (ZAP70 (human); compound 1.0 µM): 84%
residual activity (ZAP70 (human); compound 10.0 µM): 83%
SMILES: NCC(=O)Nc1ccc(-n2nc(C(F)(F)F)cc2-c2ccc3c(ccc4ccccc43)c2)cc1

residual activity (ABL1 (human); compound 0.1 µM): 101%
residual activity (ABL1 (human); compound 1.0 µM): 110%
residual activity (ABL1 (human); compound 10.0 µM): 106%
residual activity (CDK9 CCNT1 (human); compound 0.1 µM): 94%
residual activity (CDK9 CCNT1 (human); compound 1.0 µM): 97%
residual activity (CDK9 CCNT1 (human); compound 10.0 µM): 107%
residual activity (CSNK1G2 (human); compound 0.1 µM): 109%
residual activity (CSNK1G2 (human); compound 1.0 µM): 104%
residual activity (CSNK1G2 (human); compound 10.0 µM): 103%
residual activity (DDR2 (human); compound 0.1 µM): 105%
residual activity (DDR2 (human); compound 1.0 µM): 100%
residual activity (DDR2 (human); compound 10.0 µM): 94%
residual activity (EIF2AK3 (human); compound 0.1 µM): 129%
residual activity (EIF2AK3 (human); compound 1.0 µM): 108%
residual activity (EIF2AK3 (human); compound 10.0 µM): 115%
residual activity (IRAK1 (human); compound 0.1 µM): 101%
residual activity (IRAK1 (human); compound 1.0 µM): 99%
residual activity (IRAK1 (human); compound 10.0 µM): 100%
residual activity (MAP4K3 (human); compound 0.1 µM): 81%
residual activity (MAP4K3 (human); compound 1.0 µM): 85%
residual activity (MAP4K3 (human); compound 10.0 µM): 84%
residual activity (MAP4K5 (human); compound 0.1 µM): 106%
residual activity (MAP4K5 (human); compound 1.0 µM): 110%
residual activity (MAP4K5 (human); compound 10.0 µM): 94%
residual activity (MAPK11 (human); compound 0.1 µM): 121%
residual activity (MAPK11 (human); compound 10.0 µM): 128%
residual activity ([1]; compound 0.1 µM): 128%
residual activity ([1]; compound 1.0 µM): 109%
residual activity ([1]; compound 10.0 µM): 125%
residual activity (PAK6 (human); compound 0.1 µM): 125%
residual activity (PAK6 (human); compound 1.0 µM): 126%
residual activity (PAK6 (human); compound 10.0 µM): 105%
residual activity (PDGFRA (human); compound 1.0 µM): 117%
residual activity (PDGFRA (human); compound 10.0 µM): 121%
residual activity ([2]; compound 0.1 µM): 107%
residual activity ([2]; compound 1.0 µM): 120%
residual activity ([2]; compound 10.0 µM): 112%
residual activity (PRKCG (human); compound 0.1 µM): 119%
residual activity (PRKCG (human); compound 1.0 µM): 112%
residual activity (PRKCG (human); compound 10.0 µM): 102%
residual activity (PTK6 (human); compound 0.1 µM): 109%
residual activity (PTK6 (human); compound 1.0 µM): 123%
residual activity (SIK2 (human); compound 0.1 µM): 82%
residual activity (SIK2 (human); compound 1.0 µM): 78%
residual activity (SIK2 (human); compound 10.0 µM): 66%
residual activity (SIK3 (human); compound 0.1 µM): 105%
residual activity (SIK3 (human); compound 1.0 µM): 106%
residual activity (SIK3 (human); compound 10.0 µM): 94%
residual activity (STK16 (human)): 126%
residual activity (STK24 (human); compound 0.1 µM): 111%
residual activity (STK24 (human); compound 1.0 µM): 126%
residual activity (STK24 (human); compound 10.0 µM): 133%
residual activity (STK33 (human); compound 0.1 µM): 116%
residual activity (STK33 (human); compound 10.0 µM): 120%
residual activity (TEK (human); compound 1.0 µM): 98%
residual activity (TEK (human); compound 10.0 µM): 83%
residual activity (TESK1 (human); compound 0.1 µM): 109%
residual activity (TESK1 (human); compound 1.0 µM): 114%
residual activity (TESK1 (human); compound 10.0 µM): 104%
residual activity (TLK1 (human); compound 0.1 µM): 101%
residual activity (TLK1 (human); compound 1.0 µM): 103%
residual activity (TLK1 (human); compound 10.0 µM): 98%
residual activity (TSSK1B (human); compound 0.1 µM): 100%
residual activity (TSSK1B (human); compound 1.0 µM): 102%
residual activity (TSSK1B (human); compound 10.0 µM): 78%
residual activity (TTBK1 (human); compound 0.1 µM): 100%
residual activity (TTBK1 (human); compound 1.0 µM): 118%
residual activity (TTBK1 (human); compound 10.0 µM): 95%
residual activity (TTBK2 (human); compound 0.1 µM): 108%
residual activity (TTBK2 (human); compound 1.0 µM): 105%
residual activity (TTBK2 (human); compound 10.0 µM): 112%
residual activity (ULK1 (human); compound 0.1 µM): 108%
residual activity (ULK1 (human); compound 1.0 µM): 115%
residual activity (ULK1 (human); compound 10.0 µM): 111%
residual activity (ULK2 (human); compound 0.1 µM): 92%
residual activity (ULK2 (human); compound 1.0 µM): 96%
residual activity (ULK2 (human); compound 10.0 µM): 90%
residual activity (WNK1 (human); compound 0.1 µM): 117%
residual activity (WNK1 (human); compound 1.0 µM): 111%
residual activity (WNK1 (human); compound 10.0 µM): 113%
residual activity (ZAP70 (human); compound 1.0 µM): 113%
SMILES: CC1=C(CO)C(=O)O[C@@H]([C@@H](C)[C@H]2CC[C@H]3[C@@H]4C[C@H]5O[C@]56[C@@H](O)C=CC(=O)[C@]6(C)C4CC[C@]23C)C1 (some centres undefined)
